Experimental data reported in PubChem BioAssay (NCI).
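All cell lines were grown in 96-well plates and treated with compound for 48 hours. At the GI50, growth is halved. TGI: concentration producing complete growth inhibition.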

What was measured:
Assay in all cases: NCI anticancer screen, dose series, 48 h
A498 renal = test system: A498 renal
A549 NSCLC = test system: A549 NSCLC
CAKI-1 renal = test system: CAKI-1 renal
CCRF-CEM leukemia = test system: CCRF-CEM leukemia
EKVX NSCLC = test system: EKVX NSCLC
HL-60(TB) leukemia = test system: HL-60(TB) leukemia
IGROV1 ovarian = test system: IGROV1 ovarian
M14 melanoma = test system: M14 melanoma
OVCAR-8 ovarian = test system: OVCAR-8 ovarian
UACC-257 melanoma = test system: UACC-257 melanoma

SMILES	TGI (A498 renal) [µM]	TGI (A549 NSCLC) [µM]	TGI (CAKI-1 renal) [µM]	TGI (CCRF-CEM leukemia) [µM]	TGI (EKVX NSCLC) [µM]	TGI (HL-60(TB) leukemia) [µM]	TGI (IGROV1 ovarian) [µM]	TGI (M14 melanoma) [µM]	TGI (OVCAR-8 ovarian) [µM]	TGI (UACC-257 melanoma) [µM]	GI50 (A498 renal) [µM]	GI50 (A549 NSCLC) [µM]	GI50 (CAKI-1 renal) [µM]	GI50 (CCRF-CEM leukemia) [µM]	GI50 (EKVX NSCLC) [µM]	GI50 (HL-60(TB) leukemia) [µM]	GI50 (IGROV1 ovarian) [µM]	GI50 (M14 melanoma) [µM]	GI50 (OVCAR-8 ovarian) [µM]	GI50 (UACC-257 melanoma) [µM]
N#C/C(=C\c1ccc(O)c(O)c1)C(N)=S	> 100	> 100	> 100	> 55.3	> 100	> 20	> 100	> 100	> 100	97.7										
CN(C)CCNc1c2c(c(NCCN(C)C)c3[nH]ccc13)C(=O)c1ccccc1C2=O	25.1	13.3	6.72		2.65		> 100	29.9	9.21	19	11.3	0.748	2.56	0.281	0.903	1.39	1.19	3.68	0.532	4.71
CC1OC(O[C@@H]2OC=C(C=O)[C@@]3(O)CC[C@H](C)[C@@H]23)C(O)C(O)C1O (stereo not given in full)	> 100	> 100	> 100	> 100	> 100	> 100	> 100	> 100	> 100	> 100										
CC1(C)C(=NNC(=O)C[N+](C)(C)C)C(C)(C)C1=NNC(=O)C[N+](C)(C)C	> 100	> 100	> 100	> 100	> 100	> 100	> 100	> 100	> 100	> 100										
O=[N+]([O-])C1C2C=CC(C2)[C@H]1c1ccco1 (stereo not given in full)	> 100	> 100	> 100	> 100	> 100	> 100	> 100	> 100	> 100	> 100										
COc1cc(/C=C/c2cc(O)c3cc(C(C)=O)c(=O)oc3c2)cc2c1O[C@]1(C)CC[C@@H](O)C(C)(C)[C@H]1C2	> 28.2	> 53.2	> 39.4	> 29.4	> 64.1	10.7	> 66.1	> 20.2	> 95.1	> 30.5		> 24.2			> 32.5	2.12	> 25.9		> 28.2	
CCc1ccccc1NC(=O)C(=O)CC(=O)c1sc(Nc2ccccc2)nc1C	> 100	> 100	> 100	> 100	> 100	> 100	> 100	> 100	> 100	> 100										
O=C1c2cccnc2C(=O)c2nc3cc(N4CCN(C5CC5)CC4)ccc3nc21	2.91	0.669	3.05	9.83	4.02	7.29	3.01	1.18	11.2	1.98	1.34	0.213	0.439	2.56	1.68	2.37	0.808	0.301	1.68	0.479
CC1C=C(OC(=O)c2ccccc2)C(=O)C(n2cc(F)c(=O)[nH]c2=O)O1 (stereo not given)	> 100	> 100	> 100	> 100	> 100	> 100	> 100	> 100	> 100	> 100										
COc1ccc(/C(C#N)=C/c2ccccc2OC)cc1	> 100	> 100	> 100	30.3	> 100	> 100	> 100	60.9	> 100	> 100	5.37	6.19	6.49	3.34	41.1	5.25	8.82	4.8	25.2	12.4
Nc1nc2c(c3ncncc13)C(c1cccc(C(F)(F)F)c1)Cc1ncncc1-2 (stereo not given)	8.75	> 100	> 100	23.3	> 100	14.1	74.9	10	> 100	62.1	3.28	5.45	4.29	4.28	6.18	3.44	8.06	2.97	8.08	9.56
COc1cc(OC)c2c(c1)C(=O)C(CC(C)O)=CC2=O (stereo not given)	31.7	37.1	34.3	33.5	26.2	21.8	34.2	32.9	29.5	30.7										
CN1CCC(n2cnc(-c3ccc(F)cc3)c2-c2ccnc(NCCO)n2)CC1	> 25	> 25	> 25	> 25	> 25	> 25	> 25	> 25	> 25	> 25	14.8	11.9	> 17.9	> 25	> 23.2	> 25	18.1	> 25	18.4	> 25
C=CC/C=C/Cc1csc(C(C)(C)C(O)C/C=C/C(=C)CCNC(=O)OC)n1 (stereo not given)	> 100	> 100	> 100	> 100	> 100	> 79.4	> 100	> 100	> 100	> 100										
CCOC(=O)COc1ccccc1/C=C1\CCC(CN(C)C)C1=O (stereo not given)	31.3	42.8	10.9	8.42	34.7	2.58	30.4	22.6	15.1	16.3										
CC(CCC(=O)O)[C@H]1CCC2[C@@H]3CC[C@@H]4CC(O)CC[C@]4(C)C3CC[C@@]21C (stereo not given in full)	> 100	> 100	72.3	85.3	> 100	> 100	> 100	97.8	> 100	> 100		25.3	26.7	21.9	44.4	52.3	40.7	30.4	50	27.7
COc1cc(C2CC(c3ccc4c(c3)OCO4)=NN2C=O)cc(OC)c1OC (stereo not given)		> 100	> 100	> 100	> 100		> 100	> 100	> 100	> 100	0.828	> 24.5	1.25	2.48	3.74	0.935	2.37	1.3	> 23.3	> 20.3
OC(c1cc(-c2ccccc2)nc2ccc(Cl)cc12)C1CCCCN1 (stereo not given)	20.3	8.21	5.9	7.69	6.27	4.82	4.19	3.54	6.38	4.13	6.22	3.07	2.1	2.59	2.36	2.26	1.9	1.87	2.55	2.23
COc1ccc(-c2csc(N(C(=O)N3CCN(c4cc5c(cc4F)c(=O)c(C(=O)O)cn5C4CC4)CC3)c3ccccc3)n2)cc1	6.42	12.1	8.76	> 100	> 100	5.94	> 100	> 100	> 100	6.71	1.34	3.01	2.46	3.06	3.3	2.34	1.21	3.7	2.82	2.35
CC1=Nc2ccccc2S/C1=C(/C)NNC(=O)C(N)=O	> 100	> 100	> 100	> 100	> 100	> 100	> 100	> 100	> 100	> 100										
Cc1ccc(NC(=O)C(=O)C(C#N)c2ccccc2C)cc1C (stereo not given)	> 100	> 100	> 100	> 100	> 100	> 85.8	> 100	> 100	> 100	> 100										
COC(=O)[C@H](C[C@H](Cc1ccccc1)NC(=O)c1csc([C@@H](C[C@H](C(C)C)N(C)C(=O)[C@@H](NC(=O)[C@H]2CCCCN2C)C(C)C)OC(C)=O)n1)NC(=O)OCc1ccccc1	0.0101	> 9	> 9	> 9	> 9	0.00178	> 4.04	0.365	> 9	2.78	0.00112	0.00156	0.00168	< 0.0009	0.00843	< 0.0009	0.00119	< 0.0009	< 0.0009	0.0349
